Test results published in publication PMC5597121, “The human bitter taste receptor T2R38 is broadly tuned for bacterial compounds” (PLoS ONE, 2017).
Substitutions are numbered along the chain they refer to. Values joined by “and” are separate entries in the source; they are usually repeats but may differ in a detail not shown here. Equal values may be shown once. “Also recorded” adds a separate entry of the source. Read-outs that look alike come from different tables or passages of the source.

Key:
[1] = molecular target: T1, T2R38 AVI (Homo sapiens, UniProt P59533, A262V); assay: Single cell calcium imaging, control: cells transfected with nonfunctional allele (AVI) of T2R38; format: cell-based; settings: T2R38 AVI, individual values of experiments 1-5
T1 construct: leader: first 45 amino acids of rat somatostatin receptor subtype 3 (SSTR3) (N); expressed in transfected cells; host or cells: Peakrapid cells (HEK293 derivative, ATCC CRL-2828) stably expressing Galpha16gustducin44, co-transfected with human RTP4
T1 sequence (P59533 1-333 A262V): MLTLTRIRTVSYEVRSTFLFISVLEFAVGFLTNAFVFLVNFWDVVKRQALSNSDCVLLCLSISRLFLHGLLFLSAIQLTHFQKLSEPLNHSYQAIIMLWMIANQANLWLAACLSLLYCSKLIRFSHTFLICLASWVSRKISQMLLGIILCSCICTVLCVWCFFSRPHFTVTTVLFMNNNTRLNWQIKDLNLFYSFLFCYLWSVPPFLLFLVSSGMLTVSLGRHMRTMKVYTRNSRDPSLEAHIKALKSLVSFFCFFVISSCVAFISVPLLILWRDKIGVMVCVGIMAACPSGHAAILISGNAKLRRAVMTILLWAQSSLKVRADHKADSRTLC
Experimental: (§1) The coding sequences of either the functional (PAV, GenBank accession number AY258597.1) and non-functional (AVI, GenBank accession number AF494231.1) were amplified from human genomic DNA by polymerase chain reaction.
(§2) The Peakrapid cell line expressing stably a chimeric Gα16gustducin44 G protein [21] was used. 40 000 cells were seeded in each well of a black/clear poly-D-lysine cellware pre-coated 96-well plate (Biocoat®, Becton-Dickinson, Erembodegem, Belgium) and transiently transfected with 50 ng of plasmid DNA containing the receptor sequence or not (empty vector) and with 50 ng of chaperone protein RTP4 per well. Forty hours after transfection, cells were incubated with the calcium-sensitive dye Fluo4 (Life Technologies, Oregon, USA) solubilized at 10 μg/ml in a buffer containing EMEM (150 mM NaCl, 5 mM KCl, 2 mM CaCl2, 1.2 mM MgCl2, 10 mM glucose), 10 mM HEPES, 0.01% (v/v) Pluronic F127, 0.1% (w/v) bovine serum albumin. After 1 h incubation at 37°C, cells were rinsed twice with the same buffer without Fluo4 and left in 50 μl buffer (prior ligand injection). Measurement were performed on a platform based on a motorized Axiobserver Z1 fluorescence microscope piloted by a Axiovision software (Zeiss, Jena, Germany) as described previously. For each selected well, images were taken 1 per second, during 30 seconds. 50 μl of the buffer containing the ligand twice concentrated was injected on the 2nd second of the time lapse record.
(§3) After time lapse record, the number of responding cells in each injected well was determined using ImageJ 1.34 (Rasband, W.S., ImageJ, National Institutes of Health, Bethesda, Maryland, USA, http://rsb.info.nih.gov/ij/1997-2004), and expressed as the percentage of the surface of a microscope field covered by activated cells with respect to the total surface of the field covered by confluent cells. Automated determination of the surface occupied by responding cells is easier to perform than a cell counting. The resulting percentage of positive surface provided a convenient estimation of the percentage of responding cells, as observed by comparing the percentage of positive surface and percentage of responsive cells determined by direct counting, in the same experiment. In agreement with the literature, the percentage of responding cells was proportional to the agonist concentration. During experiment in each plate, at least 2 wells were tested with phenylthiocarbamide (PTC) at 0.1 mM, which is one of the best characterized agonist of T2R38 in the literature. The activation of T2R38 by PTC allows normalization of the result of other tested molecules. The results were thus expressed as the percentage of PTC activation. In scaling calcium imaging assays using this latter receptor, concentration-responses curves were performed and data were fitted to a four parameter logistic equation: y=min+ (max− min)/1+10 ^(logEC50−x)nH . Min and max are the minimum and the maximum values of the percentage of cell-activated surface respectively, y is the percentage of cell-activated surface at the x concentration and nH is the Hill coefficient.

[2] = molecular target: T2, T2R38 (Homo sapiens, UniProt P59533, A49P/I296V); assay: Single cell calcium imaging, Peakrapid cells (Gα16gustducin44) transiently transfected with T2R38; format: cell-based; settings: for response of T2R38 PAV transfected cells (S7_fig raw data): individual values of experiments 1-5; for Emax: read-out: Emax (% of positive control); for specific activation of T2R38: ethanol-solubilized
T2 construct: leader: first 45 amino acids of rat somatostatin receptor subtype 3 (SSTR3) (N); expressed in transfected cells; host or cells: Peakrapid cells (HEK293 derivative, ATCC CRL-2828) stably expressing Galpha16gustducin44, co-transfected with human RTP4
T2 sequence (P59533 1-333 A49P/I296V): T1 sequence (P59533 1-333 A262V) with A49P, V262A, I296V
Excerpt: as §1
These coding sequences were cloned in a pEFIB backbone vector in translational fusion with the coding sequence of a leader sequence corresponding to the 45 first amino acids of the rat somatostatin receptor subtype 3 [20]. The constructs were verified by sequencing. The coding sequence of RTP4 (Genbank accession number AY562238.1) was amplified from human spleen cDNA and cloned a pCI backbone vector.
The Gα16gustducin44 sequence was generated by swapping the last 132 nucleotides of the G α16 with the corresponding terminal sequence of the Gα-gustducin [21] and was cloned in a pIRES-Puro plasmid. This vector was transfected in the Peakrapid cell line (ATCC reference: CRL-2828™; purchased from LGC Standards SARL, Molsheim, FRANCE), HEK293 cell line derivative, cultured in EMEM culture medium (reference BE12-136F; Lonza, Vervier, BELGIUM) supplemented with 10% of foetal bovine serum (Sigma-Aldrich, Bornem, Belgium) and 1 μg/ml of Puromycin to allow the selection of recombinant cell populations. Cell clones expressing the Gα16gustducin44 were selected and the clone presenting the best functional response of T2R38 to phenylthicarbamide was used for the study (see below).
as §2
as §3, with “In scaling calcium imaging assays using this latter receptor, concentration-responses curves were performed and data were fitted to a four parameter logistic equation: y=min+ (max− min)/1+10 ^(logEC50−x)nH . Min and max are the minimum and the maximum values of the percentage of cell-activated surface respectively, y is the percentage of cell-activated surface at the x concentration and nH is the Hill coefficient.” left out

[3] = test system: mock transfected cells (empty vector); assay: Single cell calcium imaging, control: mock transfected (empty vector) Peakrapid cells; format: cell-based, human
Experimental: as §2, §3

[4] = concentration-response curve, read-out: EC50
[5] = percentage of the response elicited by 0.1 mM PTC
[6] = 1mM in DMSO 1.5%, listed as HSL-C12
[7] = 1mM in EtOH 2%, listed as HSL-C12

Structure (SMILES): CCCC(C)=O [2-pentanone]
- response of T2R38 AVI transfected cells (S7_fig raw data) [1]: 0.427% and 0.477% and 0.476% and 0.193% and 0.0823% and 0.141% and 0.285% and 0.393%
- agonist activity on T2R38 (in words) [2]: able to specifically trigger this receptor
- response of T2R38 PAV transfected cells (S7_fig raw data) [2]: 9% and 12% and 15% and 13% (2×) and 7.41% and 5.71% and 14%
- EC50 [2, 4]: 4 mM
- EC50 ([2]; given in the concentration-response curve, read-out: logEC50 (converted)): 4.17 mM
- Emax [2, 5]: 45%
- percentage of surface covered by activated cells ([3]; 2 pentanone 0.0001, log10[ ] -4): 0.19% and 0.34% and 0.32% and 0.16% and 0.35% and 0.41%
- percentage of surface covered by activated cells ([3]; 2 pentanone 0.001, log10[ ] -3): 0.04% and 1.06% and 0.17% and 0.14% and 0.64% and 0.06%
- percentage of surface covered by activated cells ([3]; 2 pentanone 0.003, log10[ ] -2.52288): 0.03% and 0.41% and 0.31% and 0.06% and 0.22% and 0.074%
- percentage of surface covered by activated cells ([3]; 2 pentanone 0.006, log10[ ] -2.22185): 0.27% and 1.25% and 0.19% and 0.29% and 0.62% and 0.33%
- percentage of surface covered by activated cells ([3]; 2 pentanone 0.02, log10[ ] -1.69897): 0.18% and 0.24% and 0.54% and 1.13% and 0.15% and 0.52%

Structure (SMILES): CC(C)=O [acetone]
- response of T2R38 AVI transfected cells (S7_fig raw data) [1]: 0.559% and 1.33% and 0.331% and 0.695% and 0.444% and 0.829%
- agonist activity on T2R38 (in words) [2]: able to specifically trigger this receptor
- response of T2R38 PAV transfected cells (S7_fig raw data) [2]: 16% and 18% and 21% and 22% and 7% and 15%
- percentage of surface covered by activated cells ([2]; acetone 0.0035, log10[ ] -2.45): 0.29% and 0.16% and 0.35%
- percentage of surface covered by activated cells ([2]; acetone 0.011, log10[ ] -1.95): 1.02% and 0.77% and 0.78% and 0.46% and 1.17% and 0.98%
- percentage of surface covered by activated cells ([2]; acetone 0.035, log10[ ] -1.45): 0.69% and 0.81% and 7.95% and 5.59% and 2.13% and 2.80%
- percentage of surface covered by activated cells ([2]; acetone 0.066, log10[ ] -1.18): 2.66% and 2.94% and 6.89% and 9.70%
- EC50 [2, 4]: 60 mM
- logEC50 ([2]; given in the concentration-response curve): -1.22
- Emax (% of positive control) [2, 5]: 67 % of positive control
- percentage of surface covered by activated cells ([3]; acetone 0.0035, log10[ ] -2.45): 1.26% and 0.40% and 0.58%
- percentage of surface covered by activated cells ([3]; acetone 0.011, log10[ ] -1.95): 0.32% and 0.08% and 0.49% and 0.06%
- percentage of surface covered by activated cells ([3]; acetone 0.035, log10[ ] -1.45): 0.26% and 0.42% and 1.02% and 0.10%
- percentage of surface covered by activated cells ([3]; acetone 0.066, log10[ ] -1.18): 1.43% and 0.30% and 0.70%
- percentage of surface covered by activated cells ([3]; acetone 0.114, log10[ ] -0.94): 0.76% and 0.05% and 0.38% and 0.11%
- percentage of surface covered by activated cells ([3]; acetone 0.162, log10[ ] -0.79): 1.04% and 0.22% and 0.73% and 0.01%
- percentage of surface covered by activated cells ([3]; acetone 0.185, log10[ ] -0.73): 0.0454% and 0.0283% and 0.02%

Structure (SMILES): CSSC [diméthyldisulfide]
- response of T2R38 AVI transfected cells (S7_fig raw data) [1]: 0.145% and 0.026% and 1.18% and 0.463% and 1.36% and 1.27% and 1.33% and 1.1% and 0.0987% and 0.185%
- response of T2R38 PAV transfected cells (S7_fig raw data) [2]: 18% and 12% (2×) and 2.83% and 2.52% and 3.72% and 7.4% and 9% and 2% and 0.585%

Structure (SMILES): O=C1CCCO1 [γ-butyrolactone]
- response of T2R38 AVI transfected cells (S7_fig raw data) ([1]; listed as g-butyrolactone): 0.0283% and 0.0479% and 0.129% and 0.148% and 0.16% and 0.208% and 0.188% and 0.394% and 0.0477% and 0.222%
- agonist activity on T2R38 (in words) [2]: able to specifically trigger this receptor
- EC50 ([2]; EC50, concentration-response curve): 12 mM
- response of T2R38 PAV transfected cells (S7_fig raw data) ([2]; listed as g-butyrolactone): 18% and 20% and 13% and 12% (2×) and 14% and 11% (2×) and 9.52% and 15%
- EC50 ([2]; logEC50, printed in the picture of the concentration-response curve): 12 mM
- Emax [2]: 33%

Structure (SMILES): CCCCCCCCCC(=O)CC(=O)N[C@H]1CCOC1=O [C12HSL, N-3-oxo-dodecanoyl-L-homoserine lactone, reference compound]
- agonist activity on T2R38 (in words) [2]: are not agonists of the receptor in our hands
- percentage of surface covered by activated cells ([2]; 0.1mM in DMSO 0.15%): 0.46% and 1.07% and 1.52% and 0.39%
- percentage of surface covered by activated cells ([2]; 0.1mM in DMSO 0.3%): 0.20% and 0.64% and 1.46% and 0.93%
- specific activation of the receptor ([2]; 0.1 mM with either 0.3% or 0.15% DMSO in the incubation buffer): did not trigger any specific activation of the receptor; also recorded: did not trigger any specific activation of T2R38
- percentage of surface covered by activated cells [2, 6]: 8.51% and 3.40% and 8.12% and 5.47% and 4.84% and 9.74%
- percentage of surface covered by activated cells [2, 7]: 2.04% and 1.92% and 1.33% and 4.51% and 5.83% and 3.09%
- average calcium response, % of the one induced by 0.1 mM of PTC ([2]; dissolved in DMSO 1.5% (209 mM)): 42%
- specific activation of T2R38 [2]: did not trigger a specific activation of T2R38
- specific activation of T2R38 ([2]; listed as HSLC12): remained without effect on the receptor
- percentage of surface covered by activated cells ([3]; 0.1mM in DMSO 0.15%): 0.22% and 0.19%
- percentage of surface covered by activated cells ([3]; 0.1mM in DMSO 0.3%): 0.00881% and 0.16%
- percentage of surface covered by activated cells [3, 6]: 0.92% and 1.51% and 1.40% and 0.48% and 0.97% and 3.05%
- percentage of surface covered by activated cells [3, 7]: 0.58% and 7.03% and 2.23% and 2.90% and 5.38% and 0.28%
